Assay results: patent publication US10561712B2, “Treatment of cancer and inhibition of metastasis using hemoglobin beta subunit” (UNIVERSITY OF MARYLAND, BALTIMORE, priority 2014, dated 2020)

Key:
[1] = system: HPEC (Human pulmonary endothelial cells); assay: Viability of normal cells, HPEC; assay type: cell-based; settings: normal lung-residing cell line, data not shown
Text: (§1) The influence of HBB on the viability of the normal lung-residing cell lines HPEC (Human pulmonary endothelial cells) and HLMEC (Human lung microvascular endothelial cells) and on the normal kidney cell line 293T and 293A was examined as well.

[2] = system: Cyclin D1 expression in MacroNB cells; assay: Cyclin D1 expression (western blot), MacroNB cells; assay type: cell-based; settings: incubated with human HBB, 48 hr; in reference to beta-tubulin; FIG. 4C
Experimental: (§2) Lysates of neuroblastoma cells and of mouse organs were resolved on SDS-PAGE after the addition of Laemmli sample buffer, and transferred onto nitrocellulose membrane. The total amount of protein in the lanes was assessed by Ponceau staining prior to blocking of the membrane. The membrane was blocked at room temperature with 3% BSA (Sigma-Aldrich) diluted in TBS-Tween (TBST) for 1 hr. For detection of the target proteins, membranes were incubated with relevant primary antibodies (see “Antibodies”), then washed 3 times×5 min with TBSTX1 and incubated with suitable HRP-conjugated secondary antibodies (see “Antibodies”). Membranes were washed again 5 times×3 min with TBSTX1. […]
(§3) Neuroblastoma cells (5×10^6) were plated and after 24 hr cells were incubated for 48 hr with human HBB diluted in starvation medium (RPMI 5% BSA) to a concentration of 10 μg/ml. […] Cyclin D1 expression was calculated in reference to β-tubulin expression in the lane as measured by densitometry using Scion Image software (Scion).
(§4) Whole cell lysates of MicroNB and MacroNB cells incubated with human HBB were subjected to western blot analysis and immunostaining. […] Cyclin D1 expression was calculated in reference to beta-tubulin. […] Significance was evaluated using Student's t-test for each analysis after incubation with HBB compared to incubation with control media.

[3] = system: normal kidney cell line 293A; assay: Viability of normal cells, 293A; assay type: cell-based; settings: data not shown
Text: as §1

MicroNB cells = assay: Cell cycle analysis by flow cytometry, MicroNB cells; assay type: cell-based, human; settings: HBB (1 μg) for 48 hr
Experimental: Neuroblastoma cells (5×10^5) were plated and after 24 hr, cells were incubated for 48 hr with HBB diluted in starvation medium (RPMI 5% BSA) to a concentration of 10 μg/ml. Neuroblastoma cells incubated with starvation medium containing BSA alone served as control. Cells were pelleted, washed and resuspended in 0.5 ml PBSX1, containing 0.05 ml propidium iodide (PI) (P-4170, Sigma) (50 μg/ml), and 0.05 ml Triton X-100 (Sigma-Aldrich). Flow cytometry analysis was performed using Becton Dickinson FACSort and CellQuest software (Becton Dickinson, Mountain View, Calif.).
The cells were also subjected to measurement of cellular DNA content and cell cycle analysis using flow cytometry. Incubation with human HBB elevated the amount of MicroNB and MacroNB cells in the sub GO phase, by 18% and 11%, respectively (data not shown).

[4] = system: MCF-7 breast carcinoma cells; assay: Viability of cancerous cell lines, MCF-7; settings: MTS-based assay; FIG. 3E
Experimental: Neuroblastoma cells were seeded (3×10^4 per well) in a 96-well flat-bottomed tissue culture plate. After an incubation of 24 hr, cells were washed and incubated with the relevant factors (detailed in the following sections) diluted in starvation medium (RPMI-1640 containing 5% bovine serum albumin (BSA); Biological Industries, Kibbutz Beit Haemek, Israel; Sigma-Aldrich). Cell viability under normal conditions (starvation medium containing BSA) or after incubation with the relevant factors was monitored after 72 hr using an XTT (XTT cell proliferation kit; Biological Industries) or MTS-based (CellTiter 96® AQueous One Solution Cell Proliferation Assay; Promega) viability assays according to manufacturer instructions. Cells were also counted using the trypan-blue exclusion assay to verify the results obtained by XTT and MTS-based viability assays.
When incubated with the highest amount of HBB (100 μg), the viability of the following cell lines was inhibited: the breast cancer cell lines T47D and MCF-7, the prostate cancer cell line 22RVi, the cervical cancer cell line Hela, and the melanoma cell lines RALL and RKTJ.

[5] = system: ERK1/2 phosphorylation in MacroNB cells; assay: ERK1/2 phosphorylation (western blot), MacroNB cells; assay type: cell-based, human; settings: HBB (1 μg) for 48 hr; in reference to total ERK2; FIG. 4A
Experimental: Lysates of neuroblastoma cells and of mouse organs were resolved on SDS-PAGE after the addition of Laemmli sample buffer, and transferred onto nitrocellulose membrane. The total amount of protein in the lanes was assessed by Ponceau staining prior to blocking of the membrane. The membrane was blocked at room temperature with 3% BSA (Sigma-Aldrich) diluted in TBS-Tween (TBST) for 1 hr. For detection of the target proteins, membranes were incubated with relevant primary antibodies (see “Antibodies”), then washed 3 times×5 min with TBSTX1 and incubated with suitable HRP-conjugated secondary antibodies (see “Antibodies”). Membranes were washed again 5 times×3 min with TBSTX1. The bands were visualized by chemiluminescence-ECL reactions and autoradiography by exposure to Fuji film. The amount of the relevant protein in the lanes was estimated by densitometry using Scion Image software (Scion, Frederick, Md., USA).
Neuroblastoma cells (5×10^6) were plated and after 24 hr the growth medium was replaced with starvation medium (RPMI 0.5% FCS) for 24 hr. […] ERK1/2 phosphorylation was calculated in reference to total ERK2 protein, p38 and TAK1 phosphorylation was calculated in reference to total p38 and TAK1, respectively, as measured by densitometry using Scion Image software (Scion). […]

[6] = system: HLMEC (Human lung microvascular endothelial cells); assay: Viability of normal cells, HLMEC; assay type: cell-based; settings: normal lung-residing cell line, data not shown
Text: as §1

[7] = system: Cyclin D1 expression in MicroNB cells; assay: Cyclin D1 expression (western blot), MicroNB cells; assay type: cell-based; settings: incubated with human HBB, 48 hr; in reference to beta-tubulin; FIG. 4C
Experimental: as §2, §3, §4

In the case of “HBB: beta subunit of human hemoglobin, 147 amino acids, SEQ ID NO:2, HPLC-purified from native human hemoglobin”, the “influence on the viability of normal cells” value (shortened to “influence on the viability”) [1] is reported as “did not influence the viability”, the “Cyclin-D1 expression in MacroNB cells” value [2] is reported as “significant decline” and the “influence on the viability” value [3] is reported as “did not influence the viability”. For the same substance, the “elevation of the amount of MicroNB cells in G0-G1 phase” value (MicroNB cells; FIG. 4B) was 59%, the “elevation of the amount of MicroNB cells in the sub G0 phase” value (MicroNB cells; data not shown) was 18% and the “influence on viability of MCF-7 breast carcinoma cells (in words)” value [4] was “inhibits the viability”. For the same substance, the “ERK phosphorylation in MacroNB cells” value [5] was “decreased”, the “influence on the viability” value [6] was “did not influence the viability” and the “Cyclin-D1 expression in MicroNB cells” value [7] was “significant decline”.
